Assay results from ChEMBL document CHEMBL1201862, “PubChem BioAssay data set” (2004).
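Compound exposure: 48 hours, 5 concentrations, 96-well plates. The concentration for 50% growth inhibition is given as GI50.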 Activity calls are given as the source filed them. Rule as the data show it: active = GI50 up to about 1.1 µM and inactive = higher.

Tests used:
Assay in all cases: NCI anticancer screen, dose series, 48 h
A549 = system: A549
ACHN = system: ACHN
COLO 205 = system: COLO 205
EKVX = system: EKVX
HCC 2998 = system: HCC 2998
HCT-15 = system: HCT-15
HL-60 = system: HL-60
HT-29 = system: HT-29
IGROV-1 = system: IGROV-1
MDA-N = system: MDA-N
NCI-H522 = system: NCI-H522
RPMI-8226 = system: RPMI-8226
SF-268 = system: SF-268
SK-MEL-28 = system: SK-MEL-28
SK-MEL-5 = system: SK-MEL-5
SK-OV-3 = system: SK-OV-3
SN12C = system: SN12C
OVCAR-4 = system: OVCAR-4
BT-549 = system: BT-549

Compound | GI50 (A549) | GI50 (ACHN) | GI50 (COLO 205) | GI50 (EKVX) | GI50 (HCC 2998) | GI50 (HCT-15) [µM] | GI50 (HL-60) | GI50 (HT-29) | GI50 (IGROV-1) | GI50 (MDA-N) | GI50 (NCI-H522) | GI50 (RPMI-8226) | GI50 (SF-268) | GI50 (SK-MEL-28) | GI50 (SK-MEL-5) | GI50 (SK-OV-3) | GI50 (SN12C) | GI50 (OVCAR-4) | GI50 (BT-549)
COc1ccc(N[S+]([O-])CCc2ccccc2)cc1 (centres undefined) | > 100 µM (inactive) | > 100 µM (inactive) | > 100 µM (inactive) | > 100 µM (inactive) | 94 µM (inactive) | > 100 | > 100 µM (inactive) | > 100 µM (inactive) | 92.5 µM (inactive) | > 100 µM (inactive) | > 100 µM (inactive) | > 100 µM (inactive) | > 100 µM (inactive) | > 100 µM (inactive) | > 100 µM (inactive) | 4.35 µM (inactive) | > 100 µM (inactive) |  | 
CC1CC(N)=C(C#N)C1(C#N)C#N (centres undefined) | > 100 µM (inactive) | > 100 µM (inactive) | > 100 µM (inactive) | > 100 µM (inactive) | > 100 µM (inactive) | 28.4 | > 100 µM (inactive) | > 100 µM (inactive) | > 100 µM (inactive) | > 100 µM (inactive) | > 100 µM (inactive) | > 100 µM (inactive) | > 100 µM (inactive) |  |  | > 100 µM (inactive) | > 100 µM (inactive) |  | 
O=C(O)C1C2C=CC(O2)C1C(=O)NCc1ccncc1 (centres undefined) | > 100 µM (inactive) | > 100 µM (inactive) | > 100 µM (inactive) | > 100 µM (inactive) |  |  | > 100 µM (inactive) | > 100 µM (inactive) | > 100 µM (inactive) | > 100 µM (inactive) | > 100 µM (inactive) | > 100 µM (inactive) | > 100 µM (inactive) | > 100 µM (inactive) | > 100 µM (inactive) | > 100 µM (inactive) | > 100 µM (inactive) | > 100 µM (inactive) | 
COc1ccc(-c2c(C(C)=O)c(C)n(C3OC(COC(C)=O)C(OC(C)=O)C(OC(C)=O)C3OC(C)=O)c(=S)c2C#N)cc1 (centres undefined) | 66.2 µM (inactive) | > 100 µM (inactive) | > 100 µM (inactive) |  | > 100 µM (inactive) | > 100 | 63.5 µM (inactive) | > 100 µM (inactive) | > 100 µM (inactive) | > 100 µM (inactive) | > 100 µM (inactive) |  | > 100 µM (inactive) | > 100 µM (inactive) | 63.1 µM (inactive) | > 100 µM (inactive) | > 100 µM (inactive) | 73.1 µM (inactive) | 
COCc1cc2c(cc1/C(=C/[N+](=O)[O-])CS(=O)(=O)c1ccccc1)OCO2 | > 100 µM (inactive) | > 100 µM (inactive) | > 100 µM (inactive) | > 100 µM (inactive) | > 100 µM (inactive) | > 100 | > 100 µM (inactive) | > 100 µM (inactive) | > 100 µM (inactive) | > 100 µM (inactive) | 43.6 µM (inactive) | > 100 µM (inactive) | > 100 µM (inactive) | > 100 µM (inactive) | > 100 µM (inactive) | > 100 µM (inactive) | > 100 µM (inactive) |  | 
Cn1c(N/N=C/c2ccccc2)nc(-c2ccc([N+](=O)[O-])cc2)c(C#N)c1=O | 28.8 µM (inactive) | > 100 µM (inactive) | 44.2 µM (inactive) | 66.7 µM (inactive) |  | 30.5 | 11 µM (inactive) | 45.7 µM (inactive) | 49.3 µM (inactive) | 89.3 µM (inactive) | 23.1 µM (inactive) | 17.7 µM (inactive) | 39.7 µM (inactive) | > 100 µM (inactive) | 35.4 µM (inactive) | > 100 µM (inactive) | 47.2 µM (inactive) | 29 µM (inactive) | 
COc1ccc2nc(-c3ccccn3)cc(O)c2c1 | 44 µM (inactive) | 92.5 µM (inactive) | 28 µM (inactive) | 55.3 µM (inactive) |  |  | 34 µM (inactive) | 42.8 µM (inactive) | 44.6 µM (inactive) |  | 20.4 µM (inactive) | 37.8 µM (inactive) |  | 35.5 µM (inactive) |  | 52.7 µM (inactive) | 47 µM (inactive) | 72.3 µM (inactive) | 
CC(C)c1c(O[Si](C(C)C)(C(C)C)C(C)C)c2c3c(ccc4c3c1OC4(C)C)C(C)CC2 (centres undefined) | > 100 µM (inactive) | > 100 µM (inactive) | > 100 µM (inactive) | > 100 µM (inactive) |  | > 100 | > 100 µM (inactive) | > 100 µM (inactive) | > 100 µM (inactive) | > 100 µM (inactive) | > 100 µM (inactive) | > 100 µM (inactive) | > 100 µM (inactive) | > 100 µM (inactive) | > 100 µM (inactive) | > 100 µM (inactive) | > 100 µM (inactive) | > 100 µM (inactive) | 
COC(=O)c1ccc(-c2nc(C#N)c(N)o2)cc1 | > 100 µM (inactive) | > 100 µM (inactive) | > 100 µM (inactive) | > 100 µM (inactive) |  | > 100 |  | > 100 µM (inactive) | 99.8 µM (inactive) |  | 39.4 µM (inactive) | > 100 µM (inactive) | 37.7 µM (inactive) | > 100 µM (inactive) | > 100 µM (inactive) | > 100 µM (inactive) | > 100 µM (inactive) | > 100 µM (inactive) | 23.8 µM (inactive)
